Each structure is given as a SMILES string.

This assay concerns the target T1, CYP2A6 (Homo sapiens, UniProt P11509).
T1 sequence (P11509 1-494): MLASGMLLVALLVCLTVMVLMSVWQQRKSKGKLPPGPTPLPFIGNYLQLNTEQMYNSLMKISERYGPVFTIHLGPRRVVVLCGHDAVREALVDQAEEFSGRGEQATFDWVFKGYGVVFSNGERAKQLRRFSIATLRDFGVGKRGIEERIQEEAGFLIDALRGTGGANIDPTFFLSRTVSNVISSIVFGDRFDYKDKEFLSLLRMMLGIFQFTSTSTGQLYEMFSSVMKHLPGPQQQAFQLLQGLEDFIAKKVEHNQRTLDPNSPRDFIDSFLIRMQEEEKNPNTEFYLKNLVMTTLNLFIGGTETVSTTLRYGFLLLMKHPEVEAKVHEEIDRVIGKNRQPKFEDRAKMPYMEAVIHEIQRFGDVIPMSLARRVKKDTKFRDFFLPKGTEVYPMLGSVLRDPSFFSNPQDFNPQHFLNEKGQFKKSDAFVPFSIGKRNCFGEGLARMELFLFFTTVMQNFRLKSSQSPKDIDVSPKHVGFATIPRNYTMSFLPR
Kind of assay: Inhibition of CYP2A6 in human hepatocytes (coumarin probe).

Broadly, the IC50 is the midpoint of a concentration-inhibition curve. Read a high IC50 as a need for much substance. In turn, `Clc1cccc(N2CCNCC2)c1` [mCPP, m-chlorophenylpiperazine] gave an IC50 of 29.8 µM.

The values above are taken from paper PMC12518996 (Frontiers in Pharmacology, 2025).
